Assay results published in ChEMBL document CHEMBL5537177, “Discovery of Potent Antimalarial Type II Kinase Inhibitors with Selectivity over Human Kinases” (J Med Chem, 2024).
Values belong to the compound of their own block, whether it stands above or below them. Active and inactive are the calls of the source. The rule behind the calls is not given here.

Assays:
[1] = test system: Plasmodium falciparum; test: Antimalarial activity against Plasmodium falciparum harboring AcAS A597V mutation assessed as reduction in parasitemia incubated for 72 hrs by SYBR green I dye based analysis; format: functional, organism-based
[2] = test system: Plasmodium falciparum; test: Antimalarial activity against Plasmodium falciparum harboring CARL I1139K mutation assessed as reduction in parasitemia incubated for 72 hrs by SYBR green I dye based analysis; format: functional, organism-based
[3] = test system: Plasmodium falciparum; test: Antimalarial activity against Plasmodium falciparum harboring PI4K S1320L mutation assessed as reduction in parasitemia incubated for 72 hrs by SYBR green I dye based analysis; format: functional, organism-based
[4] = test system: Plasmodium falciparum; test: microbe, parasite or virus in culture; settings: Dd2, 72 h
Description: Antimalarial activity against wild-type Plasmodium falciparum Dd2 assessed as reduction in parasitemia incubated for 72 hrs by SYBR green I dye based analysis

[5] = Half life in Balb/C mouse at 3 mg/kg, iv; format: ADME, organism-based; settings: in vivo
[6] = Volume of distribution at steady state in Balb/C mouse at 3 mg/kg, iv; format: ADME, organism-based; settings: in vivo, read-out: Vdss
[7] = test system: Plasmodium falciparum; test: Antiplasmodial activity against multidrug-resistant Plasmodium falciparum Dd2 at ring stage infected in A+ erythrocytes assessed as parasite growth reduction incubated for 72 hrs by SYBR Green I dye based analysis; format: functional, organism-based; settings: Dd2, Erythrocyte
[8] = test system: Plasmodium falciparum; test: Antiplasmodial activity against drug-sensitive Plasmodium falciparum 3D7 at ring stage infected in A+ erythrocytes assessed as parasite growth reduction incubated for 72 hrs by SYBR Green I dye based analysis; format: functional, organism-based; settings: 3D7, Erythrocyte
[9] = test system: Plasmodium falciparum; test: Resistance index, ratio of EC50 for multidrug-resistant Plasmodium falciparum Dd2 at ring stage infected in A+ erythrocytes to EC50 for drug-sensitive Plasmodium falciparum 3D7 at ring stage infected in A+ erythrocytes; format: organism-based; settings: human
[10] = (§1) Cytotoxicity against human HepG2 cells assessed as reduction in cell viability incubated for 48 hrs by MTS assay; format: toxicity, cell-based; settings: human, HepG2 cells
[11] = Selectivity index, ratio of EC50 for human HepG2 cells to EC50 for multidrug-resistant Plasmodium falciparum Dd2 at ring stage infected in A+ erythrocytes; format: toxicity, cell-based; settings: read-out: Ratio EC50
[12] = (§2) Cytotoxicity against human MCF7 cells assessed as reduction in cell viability incubated for 48 hrs by MTS assay; format: toxicity, cell-based; settings: human, MCF7 cells
[13] = Selectivity index, ratio of EC50 for human MCF7 cells to EC50 for multidrug-resistant Plasmodium falciparum Dd2 at ring stage infected in A+ erythrocytes; format: toxicity, cell-based; settings: read-out: Ratio EC50
[14] = test system: Plasmodium falciparum; test: Antimalarial activity against Plasmodium falciparum at ring stage infected erythrocytes assessed as reduction in parasitemia measured after 60 hrs by flow cytometry; format: functional, organism-based; settings: Erythrocyte
[15] = test system: HepG2; test: as §1; format: toxicity, cell-based; settings: hepg2
[16] = test system: MCF7; test: as §2; format: toxicity, cell-based; settings: mcf7
[17] = Metabolic stability in mouse liver microsomes assessed as half life; format: ADME, Liver cells
[18] = Metabolic stability in mouse liver microsomes assessed as intrinsic clearance; format: ADME, Liver cells
[19] = test system: Plasmodium falciparum; test: Antimalarial activity against synchronous blood-stage Plasmodium falciparum 3D7 assessed as duration of lag phase at 10 times EC50 treated every 24 hrs for 120 hrs followed by compound washout and subsequent addition of RBCs measured after 21 days by parasite reduction ratio assay; format: functional
[20] = test system: Plasmodium falciparum; test: Antimalarial activity against synchronous blood-stage Plasmodium falciparum 3D7 assessed as log of parasite reduction ratio at 10 times EC50 treated every 24 hrs for 120 hrs followed by compound washout and subsequent addition of RBCs measured after 21 days; format: functional
[21] = test system: Plasmodium falciparum; test: Antimalarial activity against synchronous blood-stage Plasmodium falciparum 3D7 assessed as parasite clearance time at 10 times EC50 treated every 24 hrs for 120 hrs followed by compound washout and subsequent addition of RBCs measured after 21 days by parasite reduction ratio assay; format: functional
[22] = test system: Plasmodium falciparum; test: (§3) Antimalarial activity against artemisinin-sensitive synchronized early ring stage Plasmodium falciparum IPC 5188 (MRA-1239) clinical isolate assessed as decrease in parasite survival at ring stage at 10 times EC50 treated for 6 hrs followed by compound removal measured after 72 hrs by geimsa staining based microscopy; format: functional, organism-based
[23] = test system: Plasmodium falciparum; test: as §3, with “artemisinin-resistant” for “artemisinin-sensitive”, “5202 (MRA-1240)” for “5188 (MRA-1239)”; format: functional, organism-based
[24] = test system: Plasmodium falciparum; test: as §3, with “artemisinin/piperaquine-resistant” for “artemisinin-sensitive”, “6261 (MRA-1284)” for “5188 (MRA-1239)”; format: functional, organism-based
[25] = test system: Plasmodium falciparum; test: Antimalarial activity against synchronized early ring stage Plasmodium falciparum 3D7 (MRA-152) clinical isolate assessed as decrease in parasite survival at ring stage at 10 times EC50 treated for 6 hrs followed by compound removal measured after 72 hrs by geimsa staining based microscopy; format: functional, organism-based
[26] = test system: Plasmodium falciparum; test: as §3, with “48” for “6”; format: functional, organism-based
[27] = test system: Plasmodium falciparum; test: as §3, with “artemisinin-resistant” for “artemisinin-sensitive”, “5202 (MRA-1240)” for “5188 (MRA-1239)”, “48” for “6”; format: functional, organism-based
[28] = test system: Plasmodium falciparum; test: as §3, with “artemisinin/piperaquine-resistant” for “artemisinin-sensitive”, “6261 (MRA-1284)” for “5188 (MRA-1239)”, “48” for “6”; format: functional, organism-based
[29] = test system: Plasmodium falciparum; test: Antimalarial activity against synchronized early ring stage Plasmodium falciparum 3D7 (MRA-152) clinical isolate assessed as decrease in parasite survival at ring stage at 10 times EC50 treated for 48 hrs followed by compound removal measured after 72 hrs by geimsa staining based microscopy; format: functional, organism-based
[30] = test system: Plasmodium falciparum; test: (§4) Antimalarial activity against synchronized early ring stage Plasmodium falciparum 3D7 (MRA-152) clinical isolate assessed as decrease in parasite survival at ring stage at 10 times EC50 treated for 6 to 48 hrs followed by compound removal measured after 72 hrs by geimsa staining based microscopy; format: functional, organism-based
[31] = test system: Plasmodium falciparum; test: as §3, with “artemisinin/piperaquine-sensitive” for “artemisinin-sensitive”, “6 to 48” for “6”; format: functional, organism-based
[32] = test system: Plasmodium falciparum; test: as §4, with “against artemisinin-resistant/piperaquine-sensitive” for “against”, “IPC 5202 (MRA-1240)” for “3D7 (MRA-152)”; format: functional, organism-based
[33] = test system: Plasmodium falciparum; test: as §4, with “against artemisinin/piperaquine-resistant” for “against”, “IPC 6261 (MRA-1284)” for “3D7 (MRA-152)”; format: functional, organism-based
[34] = biological target: Ephrin type-A receptor 2 (Homo sapiens, UniProt P29317); test: Inhibition of human EphA2 by FRET assay
Chain of Ephrin type-A receptor 2 (P29317 whole entry): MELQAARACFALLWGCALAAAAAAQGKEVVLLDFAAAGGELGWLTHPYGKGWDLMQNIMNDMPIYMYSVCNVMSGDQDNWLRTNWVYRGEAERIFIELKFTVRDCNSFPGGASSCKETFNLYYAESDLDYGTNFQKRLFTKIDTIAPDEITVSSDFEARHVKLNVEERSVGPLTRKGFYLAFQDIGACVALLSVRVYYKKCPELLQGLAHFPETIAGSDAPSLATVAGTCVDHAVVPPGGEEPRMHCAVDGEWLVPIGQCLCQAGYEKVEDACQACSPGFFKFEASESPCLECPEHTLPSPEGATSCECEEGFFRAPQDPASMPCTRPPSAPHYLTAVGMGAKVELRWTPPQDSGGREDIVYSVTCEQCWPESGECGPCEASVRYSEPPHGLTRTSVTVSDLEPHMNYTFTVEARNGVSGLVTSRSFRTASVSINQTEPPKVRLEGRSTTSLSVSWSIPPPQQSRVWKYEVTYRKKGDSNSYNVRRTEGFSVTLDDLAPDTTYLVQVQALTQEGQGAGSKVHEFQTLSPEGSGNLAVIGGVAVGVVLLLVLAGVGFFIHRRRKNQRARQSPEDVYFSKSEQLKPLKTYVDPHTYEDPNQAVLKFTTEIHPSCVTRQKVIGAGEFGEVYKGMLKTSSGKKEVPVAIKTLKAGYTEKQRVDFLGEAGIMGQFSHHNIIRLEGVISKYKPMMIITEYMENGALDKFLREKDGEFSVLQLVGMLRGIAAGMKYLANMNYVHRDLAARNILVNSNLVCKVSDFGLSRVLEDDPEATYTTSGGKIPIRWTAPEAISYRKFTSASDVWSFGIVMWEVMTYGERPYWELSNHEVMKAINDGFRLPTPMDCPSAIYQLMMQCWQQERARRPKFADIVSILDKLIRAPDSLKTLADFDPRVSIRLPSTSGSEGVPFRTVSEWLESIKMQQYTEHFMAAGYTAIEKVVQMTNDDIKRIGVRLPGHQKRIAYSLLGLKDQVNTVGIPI

[35] = test system: Plasmodium falciparum; test: microbe, parasite or virus in culture; settings: Dd2, 72 h; remark: listed apart in the source
Description: Antiplasmodial activity against asynchronous Plasmodium falciparum Dd2 assessed as parasite growth reduction incubated for 72 hrs by SYBR Green I dye based analysis

Compound: O=C(NNC(=O)c1csnn1)c1ccc(Cl)cc1
EC50 [1]: > 50000 nM | EC50 [2]: 174 nM | EC50 [3]: 106 nM | EC50 [4]: 182 nM

Compound: CC1(C)c2nc(-c3ccc(F)cc3)c(Nc3ccc(Cl)cc3)n2CCN1C(=O)CN
half-life [5]: 534 min | Vd [6]: 11.8 L/kg | EC50 [1]: 1.1 nM | EC50 [2]: 1380 nM | EC50 [3]: 1.9 nM | EC50 [4]: 1.8 nM

Compound: CCN1CCN(Cc2ccc(NC(=O)c3cc(C)cc(NC(=O)c4cncc(-c5cccs5)c4)c3)cc2C(F)(F)F)CC1
EC50 [7]: 372 nM | EC50 [8]: 235 nM | Ratio EC50 [9]: 1.6 | EC50 at 48 h [10]: 3.2 µM | selectivity ratio [11]: 8.6 | EC50 at 48 h [12]: 5.22 µM | selectivity ratio [13]: 14

EC50 [14]: < 1000 nM
Compound: Cc1cn(-c2cc(NC(=O)c3ccc(C)c(Nc4nccc(-c5cccnc5)n4)c3)cc(C(F)(F)F)c2)cn1 [NILOTINIB]

Compound: CCN1CCN(Cc2ccc(NC(=O)c3cc(Cl)cc(NC(=O)c4cncc(-c5ccc(C#N)cc5)c4)c3)cc2C(F)(F)F)CC1
EC50 [7]: 36 nM | EC50 [8]: 36 nM | Ratio EC50 [9]: 1 | EC50 [15]: 1460 nM | selectivity ratio [11]: 41 | EC50 [16]: 2.19 µM | selectivity ratio [13]: 61 | t1/2 [17]: 42.5 min | intrinsic clearance [18]: 16 µL/min/mg | Time [19]: 0 h | log(activity) [20]: 5.12 | T99.9% [21]: < 32 h | Activity [22]: inactive | Activity [23]: inactive | Activity [24]: inactive | Activity [25]: inactive | Activity [26]: Active | Activity [27]: Active | Activity [28]: Active | Activity [29]: Active | EC50 [30]: 53.5 nM | EC50 [31]: 43.9 nM | EC50 [32]: 41.5 nM | EC50 [33]: 64.9 nM

IC50 [34]: > 10000 nM | EC50 [35]: 341 nM
Compound: CCN1CCN(Cc2ccc(NC(=O)c3cc(NC(=O)c4cncc(-c5cccs5)c4)cc(OC)c3)cc2C(F)(F)F)CC1

Compound: CNC(=O)c1ccc(-c2cnc3cnc(C(=O)N(C)c4ccc(Cl)cc4)cn23)cc1
EC50 [1]: 4.2 nM | EC50 [2]: 9.8 nM | EC50 [3]: 67.6 nM | EC50 [4]: 6 nM

Compound: C[C@H]1[C@@H](O)O[C@@H]2O[C@@]3(C)CC[C@H]4[C@H](C)CC[C@@H]1[C@@]24OO3 [ARTENIMOL]
Time [19]: 0 h | log(activity) [20]: 3.93 | T99.9% [21]: 31 h

Compound: CCN1CCN(Cc2ccc(NC(=O)c3cncc(NC(=O)c4cncc(-c5cccs5)c4)c3)cc2C(F)(F)F)CC1
EC50 [7]: 76 nM | EC50 [8]: 70 nM | Ratio EC50 [9]: 1.1 | EC50 [15]: 2550 nM | selectivity ratio [11]: 34 | EC50 [16]: 4.71 µM | selectivity ratio [13]: 62 | t1/2 [17]: 19.1 min | intrinsic clearance [18]: 36 µL/min/mg

Compound: O=C1C(O)=C([C@H]2CC[C@H](c3ccc(Cl)cc3)CC2)C(=O)c2ccccc21 [ATOVAQUONE]
Time [19]: 72 h | log(activity) [20]: 2.95 | T99.9% [21]: 101 h

Compound: CCN1CCN(Cc2ccc(NC(=O)c3cc(Cl)cc(NC(=O)c4cncc(-c5cncs5)c4)c3)cc2C(F)(F)F)CC1
EC50 [7]: 56 nM | EC50 [8]: 74 nM | Ratio EC50 [9]: 0.8 | EC50 [15]: 6080 nM | selectivity ratio [11]: 109 | EC50 [16]: 8.14 µM | selectivity ratio [13]: 145 | t1/2 [17]: 52.1 min | intrinsic clearance [18]: 13 µL/min/mg

IC50 [34]: 11 nM | EC50 [35]: 3910 nM
Compound: CCN1CCN(Cc2ccc(NC(=O)c3ccc(C)c(NC(=O)c4cncc(-c5cccs5)c4)c3)cc2C(F)(F)F)CC1

Compound: C[C@@H]1CC[C@H]2[C@@H](C)C(=O)O[C@@H]3O[C@@]4(C)CC[C@@H]1[C@]32OO4 [ARTEMISININ]
EC50 [1]: 5.1 nM | EC50 [2]: 4 nM | EC50 [3]: 5.2 nM | EC50 [4]: 2.9 nM

EC50 [14]: 1300 nM
Compound: Cc1ccc(NC(=O)c2ccc(CN3CC[C@H](N(C)C)C3)c(C(F)(F)F)c2)cc1Nc1nccc(-c2cncnc2)n1 [BAFETINIB]

Compound: CCN1CCN(Cc2ccc(NC(=O)c3cc(NC(=O)c4cncc(-c5cccs5)c4)cc(C(F)(F)F)c3)cc2C(F)(F)F)CC1
EC50 [7]: 31 nM | EC50 [8]: 35 nM | Ratio EC50 [9]: 0.9 | EC50 [15]: 2850 nM | selectivity ratio [11]: 92 | EC50 [16]: 3.54 µM | selectivity ratio [13]: 114 | t1/2 [17]: 41.4 min | intrinsic clearance [18]: 17 µL/min/mg
